# Results: patent publication US10730889B2, “Amido spirocyclic amide and sulfonamide derivatives” (Forma TM, LLC, priority 2012, dated 2020)
# Like-named read-outs stand apart in the source and are kept apart here.
# Test system: A2780 cells
# Test: In-vitro cell proliferation assay (SRB, 72 hours)
# Format: cell-based
# Conditions: A2780 cells, 72 hours, SRB, read-out: Cell Proliferation (IC50)
Compound,"IC50 (Homo sapiens, A2780, 72 h) [µM]",IC50 [µM]
"O=C(NCC1CC12CCN(C(=O)Cc1cccnc1)CC2)c1cc2cnccc2[nH]1 (stereo not drawn) [Example 277, N-[[6-[2-(3-pyridyl)acctyl]-6-azaspiro[2.5]octan-2-yl]methyl]-1H-pyrrolo[3,2-c]pyridine-2-carboxamide]",0.755,–
"CCNC(=O)N1CCC2(CC1)CC2CNC(=O)c1cc2ccncc2o1 (stereo not drawn) [Example 172, N-[[6-(ethylcarbamoyl)-6-azaspiro[2.5]octan-2-yl)methyl]furo[2,3-c]pyridine-2-carboxamide]",2,–
"Cc1ccc(NC(=O)N2CCC3(CC2)CC3CNC(=O)c2cc3ccncc3o2)cc1 (stereo not drawn) [Example 159, N-[[6-(p-tolylcarbamoyl)-6-azaspiro[2.5]octan-2-yl]methyl]furo[2,3-c]pyridine-2-carboxamide]",0.274,–
"Cn1cc(-c2ccno2)c(C(=O)N2CCC3(CC2)CC3CNC(=O)c2cc3cnccc3[nH]2)n1 (stereo not drawn) [Example 369, N-[[6-(4-isoxazol-5-yl-1-methyl-pyrazole-3-carbonyl)-6-azaspiro[2.5]octan-2-yl]methyl]-1H-pyrrolo[3,2-c]pyridine-2-carboxamide]",0.0933,–
"O=C(NCC1CC12CCN(C(=O)c1cnoc1)CC2)c1cc2ccncc2o1 (stereo not drawn) [Example 337, N-[[6-(isoxazole-4-carbonyl)-6-azaspiro[2.5]octan-2-yl]methyl]furo[2,3-c]pyridine-2-carboxamide]",0.0231,–
"CC(C)(C)CS(=O)(=O)N1CCC2(CC1)CC2CNC(=O)c1cc2ccncc2o1 (stereo not drawn) [Example 378, N-[[6-(2,2-dimethylpropylsulfonyl)-6-azaspiro[2.5]octan-2-yl]methyl]furo[2,3-c]pyridine-2-carboxamide]",2,–
"Cc1cc(C)n(CC(=O)N2CCC3(CC2)CC3CNC(=O)c2cc3ccncc3o2)n1 (stereo not drawn) [Example 67, N-[[6-[2-(3,5-dimethylpyrazol-1-yl)acetyl]-6-azaspiro[2.5]octan-2-yl]methyl]furo[2,3-c]pyridine-2-carboxamidc]",0.193,–
"N#Cc1cccc(CC(=O)N2CCC3(CC2)CC3CNC(=O)c2cc3ccncc3o2)c1 (stereo not drawn) [Example 31, N-[[6-[2-(3-cyanophenyl)acetyl]-6-azaspiro[2.5]octan-2-yl]methyl]furo[2,3-c]pyridine-2-carboxamide]",0.0121,–
"O=C(NCC1CC12CCN(C(=O)c1ccccc1Cn1cncn1)CC2)c1cc2ccncc2o1 (stereo not drawn) [Example 250, N-[[6-[2-(1,2,4-triazol-1-ylmethyl)benzoyl]-6-azaspiro[2.5]octan-2-yl]methyl]furo[2,3-c]pyridine-2-carboxamide]",2,–
"CC(=O)N1CCCC1C(=O)N1CCC2(CC1)CC2CNC(=O)c1cc2ccncc2o1 (stereo not drawn) [Example 68, N-[[6-(1-acetylpyrrolidine-2-carbonyl)-6-azaspiro[2.5]octan-2-yl]methyl]furo[2,3-c]pyridine-2-carboxamide]",0.414,–
"O=C(NCC1CC12CCN(C(=O)c1ccc(-n3ccnc3)cc1)CC2)c1cc2ccncc2o1 (stereo not drawn) [Example 253, N-[[6-(4-imidazol-1-ylbenzoy)-6-azaspiro[2.5]octan-2-yl]methyl]furo[2,3-c]pyridine-2-carboxamide]",0.0554,–
"Cc1ncccc1C(=O)N1CCC2(CC1)CC2CNC(=O)c1cc2ccncc2o1 (stereo not drawn) [Example 119, N-[[6-(2-methylpyridine-3-carbonyl)-6-azaspiro[2.5]octan-2-yl]methyl]furo[2,3-c]pyridine-2-carboxamide]",0.446,–
"Cc1cc(C(=O)N2CCC3(CC2)CC3CNC(=O)c2cc3ccncc3o2)nn1C (stereo not drawn) [Example 115, N-[[6-(1,5-dimethylpyrazole-3-carbonyl)-6-azaspiro[2.5]octan-2-yl]methyl]furo[2,3-c]pyridine-2-carboxamide]",0.0376,–
"CS(=O)(=O)c1ccccc1C(=O)N1CCC2(CC1)CC2CNC(=O)c1cc2ccncc2o1 (stereo not drawn) [Example 69, N-[[6-(2-methylsulfonylbenzoyl)-6-azaspiro[2.5]octan-2-yl]methyl]furo[2,3-c]pyridine-2-carboxamide]",0.194,–
"O=C(NCC1CC12CCN(C(=O)CCC(F)(F)F)CC2)c1cc2ccncc2o1 (stereo not drawn) [Example 27, N-[[6-(4,4,4-trifluorobutanoyl)-6-azaspiro[2.5]octan-2-yl]methyl]furo[2,3-c]pyridine-2-carboxamide]",0.842,–
"Cc1cc(C(=O)N2CCC3(CC2)CC3CNC(=O)c2cc3ccncc3o2)no1 (stereo not drawn) [Example 117, N-[[6-(5-methylisoxazole-3-carbonyl)-6-azaspiro[2.5]octan-2-yl]methyl]furo[2,3-c]pyridine-2-carboxamide]",0.752,–
"O=C(NCC1CC12CCN(C(=O)c1cccc3[nH]ncc13)CC2)c1cc2ccncc2o1 (stereo not drawn) [Example 240, N-[[6-(1H-indazole-4-carbonyl)-6-azaspiro[2.5]octan-2-yl]methyl]furo[2,3-c]pyridine-2-carboxamide]",0.0187,–
"CC1(C)CC1C(=O)N1CCC2(CC1)CC2CNC(=O)c1cc2ccncc2o1 (stereo not drawn) [Example 371, N-[[6-(2,2-dimethylcyclopropanecarbonyl)-6-azaspiro[2.5]octan-2-yl]methyl]furo[2,3-c]pyridine-2-carboxamide]",0.0302,–

Compound,"IC50 (Homo sapiens, A2780, 72 h) [µM]",IC50 [µM]
"N#Cc1ccc(C(=O)N2CCC3(CC2)CC3CNC(=O)c2cc3ccncc3o2)cn1 (stereo not drawn) [Example 127, N-[[6-(6-cyanopyridine-3-carbonyl)-6-azaspiro[2.5]octan-2-yl]methyl]furo[2,3-c]pyridine-2-carboxamide]",2,–
"CC(C)CC(=O)N1CCC2(CC1)CC2CNC(=O)c1cc2ccncc2o1 (stereo not drawn) [Example 273, N-[[6-(3-methylbutanoyl)-6-azaspiro[2.5]octan-2-yl]methyl]furo[2,3-c]pyridine-2-carboxamide]",0.207,–
"CC(C)(C)OC(=O)N1CCC2(CC1)CC(CNC(=O)N1Cc3ccncc3C1)C2 [Example 200, tert-butyl 2-[(1,3-dihydropyrrolo[3,4-c]pyridine-2-carbonylamino)methyl]-7-azaspiro[3.5]nonane-7-carboxylate]",0.0247,–
"CC(C)N1CC(C(=O)N2CCC3(CC2)CC3CNC(=O)c2cc3ccncc3o2)CC1=O (stereo not drawn) [Example 90, N-[[6-(1-isopropyl-5-oxo-pyrrolidine-3-carbonyl)-6-azaspiro[2.5]octan-2-yl)methyl]furo[2,3-c]pyridine-2-carboxamide]",0.183,–
"O=C(NCC1CC12CCN(C(=O)NCc1ccc(Cl)cc1Cl)CC2)c1cc2ccncc2o1 (stereo not drawn) [Example 173, N-[(6-[(2,4-dichlorophenyl)methylcarbamoyl]-6-azaspiro[2.5]octan-2-yl]methyl]furo[2,3-c]pyridine-2-carboxamide]",2,–
"O=C(NCC1CC12CCN(C(=O)CC1NC(=O)c3ccccc31)CC2)c1cc2ccncc2o1 (stereo not drawn) [Example 77, N-[[6-[2-(3-oxoisoindolin-1-yl)acetyl]-6-azaspiro[2.5]octan-2-yl]methyl]furo[2,3-c]pyridine-2-carboxamide]",1.15,–
"O=C(NCC1CC12CCN(C(=O)C1CCOCC1)CC2)c1cc2cnccc2[nH]1 (stereo not drawn) [Example 10, N-[[8-(tetrahydropyran-4-carbonyl)-8-azaspiro[2.5]octan-2-yl]methyl]-1H-pyrrolo[3,2-c]pyridine-2-carboxamidc]",0.791,–
"O=C(NCC1CC12CCN(C(=O)C(F)(F)c1ccccc1)CC2)N1Cc2ccncc2C1 (stereo not drawn) [Example 230, N-[[6-(2,2-difluoro-2-phenyl-acetyl)-6-azaspiro[2.5]octan-2-yl]methyl]-1,3-dihydropyrrolo[3,4-c]pyridine-2-carboxamide]",0.0299,–
"Cn1cc(-c2ccno2)c(C(=O)N2CCC3(CC2)CC3CNC(=O)c2cc3ccncc3o2)n1 (stereo not drawn) [Example 132, N-[[6-(4-isoxazol-5-yl-1-methyl-pyrazole-3-carbonyl)-6-azaspiro[2.5]octan-2-yl]methyl]furo[2,3-c]pyridine-2-carboxamide]",0.0072,–
"O=C(NCC1CC12CCN(C(=O)c1ccc(Cn3cncn3)cc1)CC2)c1cc2ccncc2o1 (stereo not drawn) [Example 251, N-[[6-[4-(1,2,4-triazol-1-ylmethyl)benzoyl]-6-azaspiro[2.5]octan-2-yl]methyl]furo[2,3-c]pyridine-2-carboxamide]",0.215,–
"N-[[6-(2,2- dimethylcyclopropanecarbonyl)- 6-azaspiro[2.5]octan-2- yl]methyl]furo[2,3-c]pyndine-2- carboxamide [Example 373]",–,0.00703
"O=C(NCC1CC12CCN(C(=O)c1cn[nH]c1)CC2)c1cc2ccncc2o1 (stereo not drawn) [Example 141, N-[[6-(1H-pyrazole-4-carbonyl)-6-azaspiro[2.5]octan-2-yl]methyl]furo[2,3-c]pyridine-2-carboxamide]",2,–
"CCc1cc(C(=O)N2CCC3(CC2)CC3CNC(=O)c2cc3ccncc3o2)n(C)n1 (stereo not drawn) [Example 326, N-[[6-(5-ethyl-2-methyl-pyrazole-3-carbonyl)-6-azaspiro[2.5]octan-2-yl]methyl]furo[2,3-c]pyridine-2-carboxamide]",0.0109,–
"Cc1nn(C(C)(C)C)c(C)c1C(=O)N1CCC2(CC1)CC2CNC(=O)c1cc2ccncc2o1 (stereo not drawn) [Example 294, N-[[6-(1-tert-butyl-3,5-dimethyl-pyrazole-4-carbonyl)-6-azaspiro[2.5]octan-2-yl]methyl]furo[2,3-c]pyridine-2-carboxamide]",0.0121,–
"Cc1nc(C(F)(F)F)c(C(=O)N2CCC3(CC2)CC3CNC(=O)N2Cc3ccncc3C2)s1 (stereo not drawn) [Example 388, N-[[6-[2-methyl-4-(trifluoromethyl]thiazole-5-carbonyl]-6-azaspiro[2.5]octan-2-yl]methyl]-1,3-dihydropyrrolo[3,4-c]pyridine-2-carboxamide]",0.00126,–
"COc1ccccc1CNC(=O)N1CCC2(CC1)CC2CNC(=O)c1cc2ccncc2o1 (stereo not drawn) [Example 164, N-[[6-((2-methoxyphenyl)methylcarbamoyl]-6-azaspiro[2.5]octan-2-yl]methyl]furo[2,3-c]pyridine-2-carboxamide]",1.54,–
"O=C(NCC1CC12CCN(C(=O)Nc1ccccc1)CC2)N1Cc2ccncc2C1 (stereo not drawn) [Example 208, N-[[6-(phenylcarbamoyl)-6-azaspiro[2.5]octan-2-yl]methyl]-1,3-dihydropyrrolo[3,4-c]pyridine-2-carboxamide]",0.0261,–
"O=C(NCC1CC12CCN(C(=O)c1cnccn1)CC2)c1cc2ccncc2o1 (stereo not drawn) [Example 112, N-[[6-(pyrazine-2-carbonyl)-6-azaspiro[2.5]octan-2-yl]methyl]furo[2,3-c]pyridine-2-carboxamide]",2,–
